Assay results as given in PMC2014795 (PLoS Pathogens, 2007).

Each compound was assayed against T1, HLA-DR1 (DRB1*0101) (Homo sapiens, UniProt P01903+P01911, A100R/D57E/F55L/F60I/F76Y/I96L/L162R/M171V/P40L/Q125E/R42F/V115G/Y59C) (assay: biochemical).
T1 construct: the extracellular portion of HLA-DR1 was produced by expression of isolated subunits in Escherichia coli inclusion bodies; made in house
Format: binding

Going from `CC[C@H](C)[C@H](NC(=O)[C@H](CO)NC(=O)[C@H](C)NC(=O)[C@H](CC(=O)O)NC(=O)[C@H](CC(C)C)NC(=O)[C@H](CC(C)C)NC(=O)[C@H](CO)NC(=O)[C@H](C)NC(=O)[C@@H](NC(=O)[C@H](CO)NC(=O)[C@@H](NC(=O)[C@@H](NC(=O)[C@@H](NC(=O)[C@@H](NC(=O)[C@@H](NC(=O)[C@H](CCCCN)NC(=O)[C@@H](N)CCSC)C(C)C)C(C)C)[C@@H](C)CC)C(C)C)[C@@H](C)O)C(C)C)C(=O)N[C@@H](CCC(N)=O)C(=O)N[C@@H](Cc1ccccc1)C(=O)N[C@@H](CCC(N)=O)C(=O)N[C@@H](CCCCN)C(=O)O` [Peptide 332] to `CC[C@H](C)[C@H](NC(=O)[C@@H](NC(=O)[C@H](CC(C)C)NC(=O)[C@H](C)NC(=O)[C@@H](NC(=O)[C@H](CC(C)C)NC(=O)[C@H](C)NC(=O)[C@H](CC(C)C)NC(=O)[C@H](CC(C)C)NC(=O)[C@H](CCSC)NC(=O)[C@H](CCC(N)=O)NC(=O)[C@H](Cc1ccc(O)cc1)NC(=O)[C@H](CC(N)=O)NC(=O)[C@H](CCCNC(=N)N)NC(=O)[C@H](CO)NC(=O)[C@@H](NC(=O)[C@H](CC(C)C)NC(=O)[C@@H](N)CCCNC(=N)N)C(C)C)C(C)C)C(C)C)C(=O)N[C@H](C(=O)N[C@@H](CC(C)C)C(=O)N[C@H](C(=O)O)[C@@H](C)O)[C@@H](C)O` [Peptide 310], the IC50 rises from 380 ± 28 nM to 660 ± 25 nM (1.7-fold). The first is the more potent here.

Going from `CC[C@H](C)[C@H](NC(=O)CNC(=O)[C@@H](NC(=O)[C@H](CC(C)C)NC(=O)[C@H](CCCCN)NC(=O)[C@H](CC(C)C)NC(=O)[C@H](Cc1ccc(O)cc1)NC(=O)[C@H](CCC(=O)O)NC(=O)[C@H](CCCNC(=N)N)NC(=O)[C@@H](NC(=O)[C@H](CO)NC(=O)[C@@H](NC(=O)[C@@H](N)CC(N)=O)[C@@H](C)O)[C@@H](C)O)[C@@H](C)CC)C(=O)N[C@H](C(=O)N[C@@H](C)C(=O)N[C@H](C(=O)N[C@@H](CCSC)C(=O)N[C@@H](Cc1ccccc1)C(=O)N[C@@H](C)C(=O)N[C@H](C(=O)N[C@@H](Cc1ccc(O)cc1)C(=O)O)[C@@H](C)O)[C@@H](C)CC)[C@@H](C)O` [Peptide 308] to `CC[C@H](C)[C@H](NC(=O)[C@H](CO)NC(=O)[C@H](CC(N)=O)NC(=O)[C@H](Cc1ccccc1)NC(=O)[C@@H](NC(=O)[C@H](CC(C)C)NC(=O)[C@H](CCC(N)=O)NC(=O)[C@H](CC(=O)O)NC(=O)[C@H](CCC(=O)O)NC(=O)[C@@H](N)Cc1ccccc1)C(C)C)C(=O)N[C@@H](CO)C(=O)N[C@@H](C)C(=O)N[C@@H](CCCNC(=N)N)C(=O)N[C@@H](C)C(=O)N[C@@H](CC(C)C)C(=O)N[C@@H](CCCCN)C(=O)N[C@@H](C)C(=O)N[C@@H](Cc1ccc(O)cc1)C(=O)N[C@@H](Cc1ccccc1)C(=O)N[C@H](C(=O)N[C@@H](C)C(=O)O)[C@@H](C)O` [Peptide 345], the IC50 falls from 23 ± 5 nM to 8 ± 0.3 nM (2.9-fold).

Going from `CC[C@H](C)[C@H](NC(=O)CNC(=O)[C@H](CCCCN)NC(=O)[C@@H](N)Cc1c[nH]c2ccccc12)C(=O)N[C@@H](Cc1ccc(O)cc1)C(=O)N[C@H](C(=O)N[C@@H](Cc1ccc(O)cc1)C(=O)N[C@@H](CCCNC(=N)N)C(=O)N[C@H](C(=O)N[C@H](C(=O)N[C@@H](CCCCN)C(=O)N[C@@H](CO)C(=O)N[C@@H](CO)C(=O)N[C@@H](Cc1ccccc1)C(=O)N1CCC[C@H]1C(=O)N[C@H](C(=O)N1CCC[C@H]1C(=O)N[C@H](C(=O)N[C@H](C(=O)N[C@@H](CCCCN)C(=O)N[C@@H](CO)C(=O)O)[C@@H](C)CC)[C@@H](C)O)C(C)C)[C@@H](C)CC)[C@@H](C)CC)[C@@H](C)O` [Peptide 335] to `CC[C@H](C)[C@H](N)C(=O)N[C@@H](CC(C)C)C(=O)N[C@@H](CCCCN)C(=O)N[C@@H](CO)C(=O)N[C@@H](CC(C)C)C(=O)NCC(=O)N[C@@H](Cc1ccccc1)C(=O)N[C@@H](CCCCN)C(=O)N[C@H](C(=O)N[C@@H](CC(C)C)C(=O)N[C@@H](CC(=O)O)C(=O)NCC(=O)N[C@@H](CO)C(=O)N1CCC[C@H]1C(=O)N[C@H](C(=O)N[C@@H](CO)C(=O)N[C@@H](CC(C)C)C(=O)N[C@@H](CCCNC(=N)N)C(=O)N[C@@H](Cc1ccc(O)cc1)C(=O)NCC(=O)N[C@@H](CO)C(=O)O)[C@@H](C)CC)C(C)C` [Peptide 306], the IC50 falls from 38 ± 11 nM to 5 ± 1 nM (7.6-fold).

First: CC[C@H](C)[C@H](NC(=O)CNC(=O)[C@H](CO)NC(=O)[C@H](CCC(N)=O)NC(=O)[C@H](CC(N)=O)NC(=O)[C@@H](NC(=O)[C@H](Cc1ccccc1)NC(=O)[C@@H]1CCCN1C(=O)[C@H](CCC(=O)O)NC(=O)[C@H](Cc1ccccc1)NC(=O)[C@@H](NC(=O)[C@H](CC(C)C)NC(=O)[C@@H](N)CS)C(C)C)C(C)C)C(=O)N[C@@H](CCC(=O)O)C(=O)N[C@H](C(=O)N[C@@H](CC(C)C)C(=O)N[C@@H](CC(C)C)C(=O)N[C@@H](CC(C)C)C(=O)N[C@@H](Cc1ccc(O)cc1)C(=O)N[C@@H](Cc1ccccc1)C(=O)N[C@@H](CCCCN)C(=O)O)[C@@H](C)CC [Peptide 311]
Second: CC[C@H](C)[C@H](NC(=O)[C@H](CCCNC(=N)N)NC(=O)[C@H](Cc1ccccc1)NC(=O)[C@H](CC(C)C)NC(=O)[C@H](Cc1ccc(O)cc1)NC(=O)[C@H](CCC(=O)O)NC(=O)[C@H](CO)NC(=O)[C@H](CC(=O)O)NC(=O)[C@@H](N)CCC(=O)O)C(=O)N[C@H](C(=O)N[C@@H](CO)C(=O)N[C@H](C(=O)N[C@H](C(=O)N[C@@H](CC(C)C)C(=O)N1CCC[C@H]1C(=O)N[C@@H](Cc1c[nH]cn1)C(=O)N[C@@H](CC(C)C)C(=O)N[C@@H](CS)C(=O)N[C@@H](CC(C)C)C(=O)N[C@@H](CC(=O)O)C(=O)N[C@@H](Cc1ccc(O)cc1)C(=O)O)C(C)C)[C@@H](C)O)C(C)C [Peptide 334]
The IC50 of the first is 76-fold higher: 3400 nM for the first, 45 ± 8 nM for the second. The second is the more potent here.

Going from `CC[C@H](C)[C@H](NC(=O)[C@H](Cc1ccc(O)cc1)NC(=O)CNC(=O)[C@H](C)NC(=O)[C@H](CC(C)C)NC(=O)[C@H](CCC(N)=O)NC(=O)[C@H](Cc1ccc(O)cc1)NC(=O)[C@H](Cc1ccc(O)cc1)NC(=O)[C@@H](NC(=O)[C@@H](NC(=O)[C@H](CC(C)C)NC(=O)[C@H](Cc1c[nH]cn1)NC(=O)[C@@H](NC(=O)[C@H](C)N)C(C)C)[C@@H](C)CC)[C@@H](C)CC)C(=O)N[C@@H](CC(C)C)C(=O)N[C@H](C(=O)N[C@H](C(=O)N[C@@H](CC(C)C)C(=O)NCC(=O)N[C@@H](CC(C)C)C(=O)NCC(=O)O)C(C)C)[C@@H](C)O` [Peptide 323] to `CC[C@H](C)[C@H](NC(=O)[C@H](Cc1ccccc1)NC(=O)[C@H](CC(C)C)NC(=O)[C@H](CC(C)C)NC(=O)[C@H](CS)NC(=O)[C@@H](NC(=O)[C@H](C)NC(=O)[C@H](C)NC(=O)[C@@H](NC(=O)[C@H](C)N)[C@@H](C)O)C(C)C)C(=O)N[C@@H](CCC(N)=O)C(=O)NCC(=O)N[C@@H](Cc1ccc(O)cc1)C(=O)N[C@@H](CO)C(=O)N[C@H](C(=O)N[C@@H](Cc1ccc(O)cc1)C(=O)N[C@@H](CCC(=O)O)C(=O)N[C@@H](CC(N)=O)C(=O)N[C@@H](Cc1ccc(O)cc1)C(=O)NCC(=O)N[C@@H](CC(N)=O)C(=O)O)[C@@H](C)CC` [Peptide 336], the IC50 falls from 2170 nM to 280 ± 40 nM (7.8-fold). The second is the more potent here.

Compared with `CC[C@H](C)[C@H](N)C(=O)N[C@@H](CC(=O)O)C(=O)N[C@@H](CC(N)=O)C(=O)N[C@@H](CCC(=O)O)C(=O)N[C@@H](CO)C(=O)NCC(=O)N[C@@H](Cc1c[nH]c2ccccc12)C(=O)N[C@@H](CCCCN)C(=O)N[C@H](C(=O)N[C@@H](CC(C)C)C(=O)N[C@H](C(=O)N[C@@H](CO)C(=O)N[C@@H](CCCNC(=N)N)C(=O)N[C@@H](C)C(=O)N[C@H](C(=O)N[C@@H](CC(=O)O)C(=O)N[C@@H](CC(C)C)C(=O)N[C@@H](CO)C(=O)N[C@@H](CO)C(=O)N[C@@H](CCCCN)C(=O)N[C@@H](CCCCN)C(=O)O)[C@@H](C)CC)C(C)C)[C@@H](C)O` [Peptide 342], `CC[C@H](C)[C@H](NC(=O)[C@H](C)NC(=O)[C@H](CCCNC(=N)N)NC(=O)CNC(=O)[C@@H](NC(=O)[C@@H](NC(=O)[C@H](CCC(N)=O)NC(=O)[C@H](CCCNC(=N)N)NC(=O)[C@H](CC(C)C)NC(=O)[C@H](CO)NC(=O)[C@H](C)NC(=O)[C@H](CCC(=O)O)NC(=O)[C@H](CC(N)=O)NC(=O)[C@H](Cc1c[nH]c2ccccc12)NC(=O)[C@@H](N)[C@@H](C)O)[C@@H](C)CC)C(C)C)C(=O)N[C@@H](CCCNC(=N)N)C(=O)N[C@@H](CC(C)C)C(=O)N[C@@H](CC(N)=O)C(=O)N[C@@H](CO)C(=O)N[C@@H](Cc1c[nH]cn1)C(=O)N[C@H](C(=O)O)C(C)C` [Peptide 343] is 1.6-fold higher in IC50: 130 ± 10 nM for the first, 210 ± 20 nM for the second. The first is the more potent here.

Compared with `CC[C@H](C)[C@H](NC(=O)[C@H](CCCNC(=N)N)NC(=O)[C@H](CO)NC(=O)CNC(=O)[C@H](CCC(N)=O)NC(=O)[C@H](CCC(=O)O)NC(=O)[C@@H](NC(=O)CNC(=O)[C@H](CC(C)C)NC(=O)[C@@H]1CCCN1C(=O)[C@H](CCCCN)NC(=O)[C@H](CCSC)NC(=O)[C@H](CC(C)C)NC(=O)[C@H](CC(C)C)NC(=O)[C@H](CC(C)C)NC(=O)[C@H](CC(N)=O)NC(=O)[C@H](Cc1ccccc1)NC(=O)[C@H](CCSC)NC(=O)[C@H](CC(=O)O)NC(=O)[C@H](Cc1ccc(O)cc1)NC(=O)[C@@H](N)CO)[C@@H](C)CC)C(=O)O` [Peptide 337], `CC[C@H](C)[C@H](N)C(=O)N[C@@H](CC(=O)O)C(=O)N[C@@H](CC(N)=O)C(=O)NCC(=O)N[C@@H](CO)C(=O)N[C@@H](CC(N)=O)C(=O)N[C@@H](CCSC)C(=O)N[C@@H](CC(C)C)C(=O)N[C@H](C(=O)N[C@@H](CC(C)C)C(=O)N[C@@H](CC(N)=O)C(=O)N1CCC[C@H]1C(=O)N[C@H](C(=O)N[C@@H](CCC(N)=O)C(=O)N[C@@H](CO)C(=O)N[C@@H](CC(=O)O)C(=O)N[C@@H](CO)C(=O)NCC(=O)N[C@H](C(=O)N[C@@H](Cc1ccc(O)cc1)C(=O)N[C@H](C(=O)O)[C@@H](C)CC)[C@@H](C)CC)[C@@H](C)O)[C@@H](C)CC` [Peptide 338] is 35-fold higher in IC50: 28 ± 6 nM for the first, 980 ± 170 nM for the second. The first is the more potent here.

For `CC[C@H](C)[C@H](NC(=O)[C@H](C)NC(=O)[C@H](CCCNC(=N)N)NC(=O)[C@@H](NC(=O)[C@@H](NC(=O)[C@@H](NC(=O)[C@H](Cc1ccccc1)NC(=O)[C@H](Cc1c[nH]c2ccccc12)NC(=O)[C@H](Cc1ccccc1)NC(=O)[C@H](CO)NC(=O)[C@H](CC(N)=O)NC(=O)[C@@H]1CCCN1C(=O)[C@@H](N)CCCNC(=N)N)C(C)C)C(C)C)C(C)C)C(=O)N[C@@H](C)C(=O)N[C@@H](CO)C(=O)N[C@@H](CCSC)C(=O)N[C@H](C(=O)N[C@@H](CCSC)C(=O)N[C@@H](Cc1ccc(O)cc1)C(=O)N[C@@H](CC(C)C)C(=O)N[C@H](C(=O)O)C(C)C)[C@@H](C)CC` [Peptide 304], the IC50 was 4000 nM.
